Experimental data taken from ChEMBL document CHEMBL4020788, “Synthesis, SAR and molecular docking studies of benzo[d]thiazole-hydrazones as potential antibacterial and antifungal agents” (2017).
The source made the active and inactive calls. No cut-off for these calls is given here.

Columns and labels:
Type in all cases: functional
Staphylococcus aureus [1] = assay: Antibacterial activity against Staphylococcus aureus at 25 ug/ml after 24 hrs by agar well diffusion method
Staphylococcus aureus [2] = assay: Antibacterial activity against Staphylococcus aureus at 50 ug/ml after 24 hrs by agar well diffusion method
Staphylococcus aureus [3] = assay: Antibacterial activity against Staphylococcus aureus at 75 ug/ml after 24 hrs by agar well diffusion method
Staphylococcus aureus [4] = assay: Antibacterial activity against Staphylococcus aureus at 100 ug/ml after 24 hrs by agar well diffusion method
Bacillus subtilis [5] = assay: Antibacterial activity against Bacillus subtilis at 25 ug/ml after 24 hrs by agar well diffusion method
Bacillus subtilis [6] = assay: Antibacterial activity against Bacillus subtilis at 50 ug/ml after 24 hrs by agar well diffusion method
Bacillus subtilis [7] = assay: Antibacterial activity against Bacillus subtilis at 75 ug/ml after 24 hrs by agar well diffusion method
Bacillus subtilis [8] = assay: Antibacterial activity against Bacillus subtilis at 100 ug/ml after 24 hrs by agar well diffusion method
Escherichia coli [9] = assay: Antibacterial activity against Escherichia coli at 25 ug/ml after 24 hrs by agar well diffusion method; details: read-out: DIZ
Escherichia coli [10] = assay: Antibacterial activity against Escherichia coli at 50 ug/ml after 24 hrs by agar well diffusion method; details: read-out: DIZ
Escherichia coli [11] = assay: Antibacterial activity against Escherichia coli at 75 ug/ml after 24 hrs by agar well diffusion method; details: read-out: DIZ
Escherichia coli [12] = assay: Antibacterial activity against Escherichia coli at 100 ug/ml after 24 hrs by agar well diffusion method; details: read-out: DIZ
Klebsiella pneumoniae [13] = assay: Antibacterial activity against Klebsiella pneumoniae at 25 ug/ml after 24 hrs by agar well diffusion method
Klebsiella pneumoniae [14] = assay: Antibacterial activity against Klebsiella pneumoniae at 50 ug/ml after 24 hrs by agar well diffusion method
Klebsiella pneumoniae [15] = assay: Antibacterial activity against Klebsiella pneumoniae at 75 ug/ml after 24 hrs by agar well diffusion method
Klebsiella pneumoniae [16] = assay: Antibacterial activity against Klebsiella pneumoniae at 100 ug/ml after 24 hrs by agar well diffusion method
Staphylococcus aureus [17] = assay: Antibacterial activity against methicillin resistant Staphylococcus aureus MRSA090 at 25 ug/ml after 24 hrs by agar well diffusion method; details: MRSA090, 24 h, read-out: DIZ
Staphylococcus aureus [18] = assay: Antibacterial activity against methicillin resistant Staphylococcus aureus MRSA090 at 50 ug/ml after 24 hrs by agar well diffusion method; details: MRSA090, 24 h, read-out: DIZ
Staphylococcus aureus [19] = assay: Antibacterial activity against methicillin resistant Staphylococcus aureus MRSA090 at 75 ug/ml after 24 hrs by agar well diffusion method; details: MRSA090, 24 h, read-out: DIZ
Staphylococcus aureus [20] = assay: Antibacterial activity against methicillin resistant Staphylococcus aureus MRSA090 at 100 ug/ml after 24 hrs by agar well diffusion method; details: MRSA090, 24 h, read-out: DIZ
Aspergillus niger [21] = assay: Antifungal activity against Aspergillus niger at 25 ug/ml after 48 hrs by agar well diffusion method
Aspergillus niger [22] = assay: Antifungal activity against Aspergillus niger at 50 ug/ml after 48 hrs by agar well diffusion method
Aspergillus niger [23] = assay: Antifungal activity against Aspergillus niger at 75 ug/ml after 48 hrs by agar well diffusion method
Aspergillus niger [24] = assay: Antifungal activity against Aspergillus niger at 100 ug/ml after 48 hrs by agar well diffusion method
Fusarium verticillioides [25] = assay: Antifungal activity against Fusarium moniliforme at 25 ug/ml after 48 hrs by agar well diffusion method
Fusarium verticillioides [26] = assay: Antifungal activity against Fusarium moniliforme at 50 ug/ml after 48 hrs by agar well diffusion method
Fusarium verticillioides [27] = assay: Antifungal activity against Fusarium moniliforme at 75 ug/ml after 48 hrs by agar well diffusion method
Fusarium verticillioides [28] = assay: Antifungal activity against Fusarium moniliforme at 100 ug/ml after 48 hrs by agar well diffusion method
Fusarium oxysporum [29] = assay: Antifungal activity against Fusarium oxysporum at 25 ug/ml after 48 hrs by agar well diffusion method
Fusarium oxysporum [30] = assay: Antifungal activity against Fusarium oxysporum at 50 ug/ml after 48 hrs by agar well diffusion method
Fusarium oxysporum [31] = assay: Antifungal activity against Fusarium oxysporum at 75 ug/ml after 48 hrs by agar well diffusion method
Fusarium oxysporum [32] = assay: Antifungal activity against Fusarium oxysporum at 100 ug/ml after 48 hrs by agar well diffusion method; details: read-out: DIZ

## Cc1ccc(/C=N/Nc2nc3cccc(C)c3s2)cc1
Staphylococcus aureus [1]
  diameter of the inhibition zone (DIZ): inactive
Staphylococcus aureus [2]
  diameter of the inhibition zone (DIZ): inactive
Staphylococcus aureus [3]
  diameter of the inhibition zone (DIZ): inactive
Staphylococcus aureus [4]; read-out: DIZ
  zone of inhibition at 100 µg/mL: 10 mm
Bacillus subtilis [5]
  diameter of the inhibition zone (DIZ): inactive
Bacillus subtilis [6]
  diameter of the inhibition zone (DIZ): inactive
Bacillus subtilis [7]
  diameter of the inhibition zone (DIZ): inactive
Bacillus subtilis [8]
  diameter of the inhibition zone (DIZ): inactive
Escherichia coli [9]
  zone of inhibition at 25 µg/mL: 10 mm
Escherichia coli [10]
  zone of inhibition at 50 µg/mL: 14 mm
Escherichia coli [11]
  zone of inhibition at 75 µg/mL: 17 mm
Escherichia coli [12]
  zone of inhibition at 100 µg/mL: 22 mm
Klebsiella pneumoniae [13]
  diameter of the inhibition zone (DIZ): inactive
Klebsiella pneumoniae [14]
  diameter of the inhibition zone (DIZ): inactive
Klebsiella pneumoniae [15]
  diameter of the inhibition zone (DIZ): inactive
Klebsiella pneumoniae [16]
  diameter of the inhibition zone (DIZ): inactive
Staphylococcus aureus [17]
  zone of inhibition at 25 µg/mL: 6 mm
Staphylococcus aureus [18]
  zone of inhibition at 50 µg/mL: 10 mm
Staphylococcus aureus [19]
  zone of inhibition at 75 µg/mL: 14 mm
Staphylococcus aureus [20]
  zone of inhibition at 100 µg/mL: 17 mm
Aspergillus niger [21]
  diameter of the inhibition zone (DIZ): inactive
Aspergillus niger [22]
  diameter of the inhibition zone (DIZ): inactive
Aspergillus niger [23]
  diameter of the inhibition zone (DIZ): inactive
Aspergillus niger [24]
  diameter of the inhibition zone (DIZ): inactive
Fusarium verticillioides [25]
  diameter of the inhibition zone (DIZ): inactive
Fusarium verticillioides [26]
  diameter of the inhibition zone (DIZ): inactive
Fusarium verticillioides [27]
  diameter of the inhibition zone (DIZ): inactive
Fusarium verticillioides [28]
  diameter of the inhibition zone (DIZ): inactive
Fusarium oxysporum [29]; read-out: DIZ
  zone of inhibition at 25 µg/mL: 7 mm
Fusarium oxysporum [30]; read-out: DIZ
  zone of inhibition at 50 µg/mL: 11 mm
Fusarium oxysporum [31]; read-out: DIZ
  zone of inhibition at 75 µg/mL: 14 mm
Fusarium oxysporum [32]
  zone of inhibition at 100 µg/mL: 17 mm

## COc1ccc(/C=N/Nc2nc3cccc(C)c3s2)cc1Br
Staphylococcus aureus [1]
  diameter of the inhibition zone (DIZ): inactive
Staphylococcus aureus [2]
  diameter of the inhibition zone (DIZ): inactive
Staphylococcus aureus [3]
  diameter of the inhibition zone (DIZ): inactive
Staphylococcus aureus [4]
  diameter of the inhibition zone (DIZ): inactive
Bacillus subtilis [5]; read-out: DIZ
  zone of inhibition at 25 µg/mL: 4 mm
Bacillus subtilis [6]; read-out: DIZ
  zone of inhibition at 50 µg/mL: 8 mm
Bacillus subtilis [7]; read-out: DIZ
  zone of inhibition at 75 µg/mL: 11 mm
Bacillus subtilis [8]; read-out: DIZ
  zone of inhibition at 100 µg/mL: 16 mm
Escherichia coli [9]
  zone of inhibition at 25 µg/mL: 7 mm
Escherichia coli [10]
  zone of inhibition at 50 µg/mL: 9 mm
Escherichia coli [11]
  zone of inhibition at 75 µg/mL: 13 mm
Escherichia coli [12]
  zone of inhibition at 100 µg/mL: 16 mm
Klebsiella pneumoniae [13]; read-out: DIZ
  zone of inhibition at 25 µg/mL: 7 mm
Klebsiella pneumoniae [14]; read-out: DIZ
  zone of inhibition at 50 µg/mL: 11 mm
Klebsiella pneumoniae [15]; read-out: DIZ
  zone of inhibition at 75 µg/mL: 14 mm
Klebsiella pneumoniae [16]; read-out: DIZ
  zone of inhibition at 100 µg/mL: 16 mm
Staphylococcus aureus [17]
  zone of inhibition at 25 µg/mL: 8 mm
Staphylococcus aureus [18]
  zone of inhibition at 50 µg/mL: 12 mm
Staphylococcus aureus [19]
  zone of inhibition at 75 µg/mL: 16 mm
Staphylococcus aureus [20]
  zone of inhibition at 100 µg/mL: 18 mm
Aspergillus niger [21]; read-out: DIZ
  zone of inhibition at 25 µg/mL: 8 mm
Aspergillus niger [22]; read-out: DIZ
  zone of inhibition at 50 µg/mL: 11 mm
Aspergillus niger [23]; read-out: DIZ
  zone of inhibition at 75 µg/mL: 14 mm
Aspergillus niger [24]; read-out: DIZ
  zone of inhibition at 100 µg/mL: 18 mm
Fusarium verticillioides [25]; read-out: DIZ
  zone of inhibition at 25 µg/mL: 7 mm
Fusarium verticillioides [26]; read-out: DIZ
  zone of inhibition at 50 µg/mL: 11 mm
Fusarium verticillioides [27]; read-out: DIZ
  zone of inhibition at 75 µg/mL: 13 mm
Fusarium verticillioides [28]; read-out: DIZ
  zone of inhibition at 100 µg/mL: 17 mm
Fusarium oxysporum [29]
  diameter of the inhibition zone (DIZ): inactive
Fusarium oxysporum [30]
  diameter of the inhibition zone (DIZ): inactive
Fusarium oxysporum [31]
  diameter of the inhibition zone (DIZ): inactive
Fusarium oxysporum [32]
  zone of inhibition at 100 µg/mL: 10 mm
